From PubChem BioAssay (NCI)
Values joined by “and” are separate entries in the source; they are usually repeats but may differ in a detail not shown here. Equal values may be shown once.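 Briefly, cells in 96-well plates were exposed to five compound concentrations for 48 h, and endpoints were estimated by linear interpolation. The concentration for 50% growth inhibition is given as GI50. TGI denotes the concentration required for complete inhibition of growth.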 Where a SMILES comes first, the peptide text is derived from it. [ ]: non-standard residue; d: D form. Phe(F5) = N[CH](Cc1c(F)c(F)c(F)c(F)c1F)C(=O)O

Columns and labels:
Assay in all cases: inhibition of tumour cell growth, NCI panel, 48 h
[1] = test system: 786-0 renal
[2] = test system: CCRF-CEM leukemia
[3] = test system: HCT-116 colon
[4] = test system: MDA-MB-231 breast
[5] = test system: MOLT-4 leukemia
[6] = test system: OVCAR-8 ovarian
[7] = test system: SK-OV-3 ovarian
[8] = test system: SNB-19 CNS
[9] = test system: U251 CNS
[10] = test system: UO-31 renal

| Compound | GI50 [1] [µM] | TGI [1] [µM] | GI50 [2] [µM] | TGI [2] [µM] | GI50 [3] [µM] | TGI [3] [µM] | GI50 [4] [µM] | TGI [4] [µM] | GI50 [5] [µM] | TGI [5] [µM] | GI50 [6] [µM] | TGI [6] [µM] | GI50 [7] [µM] | TGI [7] [µM] | GI50 [8] [µM] | TGI [8] [µM] | GI50 [9] [µM] | TGI [9] [µM] | GI50 [10] [µM] | TGI [10] |
| --- | --- | --- | --- | --- | --- | --- | --- | --- | --- | --- | --- | --- | --- | --- | --- | --- | --- | --- | --- | --- |
| O=C(CCN1CCCC1)Nc1ccc2c(NCc3ccc(F)cc3)c3ccccc3nc2c1 | 0.55 | 1.94 | 0.463 | 13.4 | 0.313 | 1.35 | 0.454 | 1.91 | 0.398 | 2.34 | 0.517 | 2.86 | 0.849 | 3.5 | 0.47 | 1.87 | 0.462 | 1.88 | 1.33 | 3.09 µM |
| COC(=O)C(CC(C)C)NC(=O)C(Cc1cnc[nH]1)NC(=O)CNC(=O)C(NC(=O)C(C)NC(=O)C(Cc1c[nH]c2ccccc12)NC(=O)C(CCC(=O)O)NC(=O)C(N)Cc1c(F)c(F)c(F)c(F)c1F)C(C)C (configuration not stated) (H-[Phe(F5)]EWAVGHL-OMe; configuration not given here) | > 100 | > 100 | > 100 | > 100 | > 100 | > 100 | – | > 12.5 | > 100 | > 100 | > 100 | > 100 | – | > 12.5 | – | > 100 | > 100 | > 100 | 0.991 | > 12.5 µM and 56 µM |
| O=C1c2ccccc2C(=O)N1CC1(C(=O)O)NCCS1(=O)=O (configuration not stated) | – | > 100 | – | > 100 | – | > 100 | – | > 100 | – | > 100 | – | > 100 | – | > 100 | – | > 100 | – | > 100 | – | > 100 µM |
| COc1cc2nc(Cl)nc(Nc3cccc(C(=O)/C=C/c4ccccc4)c3)c2cc1OC | 3.05 | 15 | 2.45 | > 100 | 1.62 | 5.16 | 6.4 | > 92.4 | 2.77 | > 100 | 4.99 | > 100 | 7.96 | 51.7 | 2.96 | > 31.8 | 2.97 | > 38.1 | 17.8 | > 100 µM |
| CSc1nnc(CCSc2ccnc3c(C(F)(F)F)cccc23)o1 | 95.3 | > 100 | 67.9 | > 100 | 66.5 | > 100 | > 100 | > 100 | 27.7 | > 100 | > 100 | > 100 | > 100 | > 100 | 61.6 | > 100 | > 100 | > 100 | 86.8 | > 100 µM |
| C[C@]12CC[C@H]3[C@@H](CCC4=CC(=O)CC[C@@H]43)[C@@H]1CC[C@@H]2OC(=O)N(CCCl)N=O | 0.0723 | 4.82 | 1.45 | > 35.4 | 3.92 | 19.2 | 14.2 | 37.9 | 0.716 | > 32.6 | 5.91 | 51.9 | 2.77 | 30 | 0.265 | 24.3 | 0.346 | 17.4 | 0.837 | 14.1 µM |
